In US20240058350A1, “Methods of Treatment” (Arena Pharmaceuticals, Inc., priority 2020, published 2024):

Key:
[1] = Clinical Trial 2: phase 1 multiple ascending oral dose TID for 7 days, PK; format: in vivo, human; details: for accumulation ratio as measured by AUCtau: 60 and 80 mg Compound 1 oral TID, after 7 days; for metabolite exposures with increasing Compound 1 doses / metabolite to parent ratios with increasing Compound 1 doses: oral TID for 7 days
Experimental: A phase 1, randomized, double-blind, placebo-controlled, multiple-ascending dose-escalation study was conducted to assess the safety, tolerability, PD, and steady state PK of the HCl salt of Compound 1 from 5 to 80 mg (adjusted free-base concentration) administered orally TID for 7 days in a total of 50 healthy subjects.

[2] = Clinical Trial 1: phase 1 single oral dose escalation, PK; format: in vivo, human; details: healthy subjects; for half-life compared with the parent compound: single oral dose of Compound 1 HCl
Experimental: (§1) A phase 1, randomized, double-blind, placebo-controlled, single-dose escalation study was conducted to assess the tolerability, PK, and PD of the HCl salt of Compound 1 at doses of 1 to 320 mg (adjusted free-base concentration) administered orally as a single dose to a total of 91 healthy subjects.

[3] = biological target: 5-HT2B receptors (Homo sapiens, UniProt P41595); test: affinity for 5-HT2B receptors; format: binding
Sequence of 5-HT2B receptors (P41595 whole entry): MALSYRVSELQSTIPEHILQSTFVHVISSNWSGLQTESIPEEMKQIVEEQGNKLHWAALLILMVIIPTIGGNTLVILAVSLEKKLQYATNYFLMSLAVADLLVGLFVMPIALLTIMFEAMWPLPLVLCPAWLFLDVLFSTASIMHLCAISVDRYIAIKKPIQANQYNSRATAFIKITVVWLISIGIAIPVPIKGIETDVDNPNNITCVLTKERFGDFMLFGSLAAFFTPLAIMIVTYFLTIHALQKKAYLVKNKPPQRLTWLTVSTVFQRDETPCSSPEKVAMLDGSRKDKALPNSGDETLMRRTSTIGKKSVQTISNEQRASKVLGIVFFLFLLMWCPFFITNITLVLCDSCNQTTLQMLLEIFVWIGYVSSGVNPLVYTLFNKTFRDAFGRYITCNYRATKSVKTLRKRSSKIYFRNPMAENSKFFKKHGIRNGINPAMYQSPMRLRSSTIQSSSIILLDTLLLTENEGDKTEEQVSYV
Description: (§2) M1 refers to N-(4-(2-(2-hydroxyethylamino)ethoxy)-3-(1-methyl-1H-pyrazol-5-yl)phenyl)-3-methoxybenzamide. M2 refers to N-(4-(2-aminoethoxy)-3-(1-methyl-1H-pyrazol-5-yl)phenyl)-3-methoxybenzamide. Compound 1, or a pharmaceutically acceptable salt, hydrate, or solvate thereof, inhibits serotonin-mediated vasoconstriction and inhibits serotonin-mediated amplification of platelet aggregation.

[4] = biological target: human 5-HT2A (Homo sapiens, UniProt P28223); test: affinity for human 5-HT2A; format: binding
Sequence of human 5-HT2A (P28223 whole entry): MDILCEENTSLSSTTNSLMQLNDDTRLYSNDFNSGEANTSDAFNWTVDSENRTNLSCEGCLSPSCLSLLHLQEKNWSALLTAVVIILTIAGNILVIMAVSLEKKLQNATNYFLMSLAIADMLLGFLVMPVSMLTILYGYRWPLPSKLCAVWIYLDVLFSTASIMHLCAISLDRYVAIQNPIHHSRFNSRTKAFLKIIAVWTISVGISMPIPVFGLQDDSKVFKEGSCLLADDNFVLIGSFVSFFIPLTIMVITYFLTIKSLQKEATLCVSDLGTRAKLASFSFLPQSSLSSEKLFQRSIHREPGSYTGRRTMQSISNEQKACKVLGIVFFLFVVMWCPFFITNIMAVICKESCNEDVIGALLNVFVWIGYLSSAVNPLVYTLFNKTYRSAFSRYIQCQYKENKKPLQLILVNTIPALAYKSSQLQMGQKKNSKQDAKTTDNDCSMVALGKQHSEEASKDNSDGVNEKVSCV
Description: as §2

[5] = biological target: T1, 5-HT2C receptors (Homo sapiens, UniProt P28335); test: affinity for 5-HT2C receptors; format: binding
T1 sequence (P28335 33-458): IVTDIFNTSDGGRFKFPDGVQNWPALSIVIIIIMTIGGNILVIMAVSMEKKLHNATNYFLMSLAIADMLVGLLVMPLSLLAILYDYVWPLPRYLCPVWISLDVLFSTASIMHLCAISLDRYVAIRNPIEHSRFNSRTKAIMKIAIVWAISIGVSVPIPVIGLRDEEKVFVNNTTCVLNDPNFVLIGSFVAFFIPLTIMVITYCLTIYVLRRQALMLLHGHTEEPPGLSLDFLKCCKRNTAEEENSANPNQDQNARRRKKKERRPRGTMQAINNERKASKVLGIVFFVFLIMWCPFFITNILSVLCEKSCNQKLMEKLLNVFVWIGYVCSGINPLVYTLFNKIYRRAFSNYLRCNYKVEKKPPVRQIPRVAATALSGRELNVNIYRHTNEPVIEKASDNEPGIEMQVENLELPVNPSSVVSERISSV
Description: as §2

[6] = test system: serotonin-mediated amplification of platelet aggregation; test: serotonin-mediated amplification of platelet aggregation; format: cell-based
Description: as §2

[7] = test system: 5-HT-mediated amplification of platelet aggregation; test: Clinical Trial 3: PD, 5-HT-mediated amplification of platelet aggregation; format: in vivo, human; details: single IV doses of 20 mg and greater
Experimental: (§3) A phase 1, randomized, blinded, sponsor-open, placebo-controlled, single ascending dose (SAD) study was conducted to assess the safety, tolerability, PK, and PD of single IV doses of Compound 1 and two active metabolites (M1 and M2) in healthy adult subjects. Five dose cohorts (each cohort composed of six Compound 1 subjects and two placebo subjects) were evaluated.
Subjects received a single dose of Compound 1 or placebo. Each cohort included a sentinel group of two subjects (one active and one placebo) dosed at least 24 hours before the remaining six subjects (five active and one placebo). The remaining subjects were dosed following review of all available safety and tolerability data from the sentinel subjects. Safety, tolerability, and PK data were reviewed after the completion of each dose cohort and prior to escalation to the next dose cohort. PD data were reviewed prior to dosing subsequent cohorts. Selection of dose for subsequent cohorts was based on the data from previous cohort(s). Following administration of Compound 1 or placebo, subjects were confined for 72 hours to monitor safety and to collect PK/PD samples. Cardiodynamic electrocardiogram (ECG) sampling were collected pre-dose and through 24 hours post-dose in each cohort. The clinic contacted subjects on Day 11 (1 day) to determine if any adverse event (AE) occurred since discharge. […]

[8] = test system: serotonin-mediated vasoconstriction; test: serotonin-mediated vasoconstriction
Description: as §2

[9] = test system: 5-HT-mediated amplification of platelet aggregation; test: Clinical Trial 1: PD, platelet aggregation with ADP with and without 5-HT; format: in vivo, human; details: single oral doses above 1 mg, healthy subjects
Experimental: as §1
(§4) PD assessment consisted of measuring pre- and post-dose platelet aggregation using an in vitro assay with ADP with and without 5-HT. The degree of thrombin receptor activating peptide (TRAP)-induced platelet aggregation inhibition between groups was similar. However, Compound 1 inhibited 5-HT-mediated amplification of platelet aggregation at doses above 1 mg.

[10] = test system: thrombin receptor activating peptide (TRAP)-induced platelet aggregation; test: Clinical Trial 1: PD, TRAP-induced platelet aggregation; format: in vivo, human; details: single oral dose versus placebo, healthy subjects
Experimental: as §1, §4

[11] = Clinical Trial 3: safety and tolerability of single IV doses; format: in vivo, human
Experimental: as §3
(§5) Subjects received a single dose of Compound 1 or placebo. Each cohort included a sentinel group of two subjects (one active and one placebo) dosed at least 24 hours before the remaining six subjects (five active and one placebo). The remaining subjects were dosed following review of all available safety and tolerability data from the sentinel subjects. Safety, tolerability, and PK data were reviewed after the completion of each dose cohort and prior to escalation to the next dose cohort. PD data were reviewed prior to dosing subsequent cohorts. Selection of dose for subsequent cohorts was based on the data from previous cohort(s). Following administration of Compound 1 or placebo, subjects were confined for 72 hours to monitor safety and to collect PK/PD samples. Cardiodynamic electrocardiogram (ECG) sampling were collected pre-dose and through 24 hours post-dose in each cohort. The clinic contacted subjects on Day 11 (1 day) to determine if any adverse event (AE) occurred since discharge.
(§6) IV doses of placebo […], 1 mg Compound 1 (n=6), 5 mg Compound 1 (n=6), 10 mg Compound 1 (n=5), 20 mg Compound 1 (n=6), 30 mg Compound 1 (n=6), or 40 mg Compound 1 (n=6) were administered. The doses of 1 mg, 5 mg, 10 mg, and 20 mg of Compound 1 were administered by slow bolus infusion over a period of two minutes, while the doses of 30 mg and 40 mg of Compound 1 were administered over a period of five minutes. The PD effects of the single doses were examined immediately after dosing and 4 hours after dosing.

[12] = Clinical Trial 3: phase 1 single ascending IV dose, PK; format: in vivo, human
Experimental: as §3, §5, §6

[13] = all doses, Day 1 versus Day 7, oral TID for 7 days

COc1cccc(C(=O)Nc2ccc(OCCNCCO)c(-c3ccnn3C)c2)c1 [Compound M1, N-(4-(2-(2-hydroxyethylamino)ethoxy)-3-(1-methyl-1H-pyrazol-5-yl)phenyl)-3-methoxybenzamide]
accumulation ratio as measured by AUCtau [1]: approximately 2
metabolite exposures with increasing Compound 1 doses [1]: increased
metabolite to parent ratios with increasing Compound 1 doses [1]: decreased
metabolite-to-parent ratios as the dose was escalated ([2]; single oral dose 1 to 320 mg): decreased
half-life compared with the parent compound [2]: longer half-lives than the parent compound
affinity for 5-HT2B receptors [3]: no appreciable affinity
affinity for human 5-HT2A [4]: high affinity
affinity for 5-HT2C receptors [5]: no appreciable affinity

COc1cccc(C(=O)Nc2ccc(OCCN)c(-c3ccnn3C)c2)c1 [Compound M2, N-(4-(2-aminoethoxy)-3-(1-methyl-1H-pyrazol-5-yl)phenyl)-3-methoxybenzamide]
accumulation ratio as measured by AUCtau [1]: approximately 2
metabolite exposures with increasing Compound 1 doses [1]: increased
metabolite to parent ratios with increasing Compound 1 doses [1]: decreased
metabolite-to-parent ratios as the dose was escalated ([2]; single oral dose 1 to 320 mg): decreased
half-life compared with the parent compound [2]: longer half-lives than the parent compound
affinity for 5-HT2B receptors [3]: no appreciable affinity
affinity for human 5-HT2A [4]: high affinity
affinity for 5-HT2C receptors [5]: no appreciable affinity

COc1cccc(C(=O)Nc2ccc(OCCN3CCOCC3)c(-c3ccnn3C)c2)c1 [Compound 1, 3-methoxy-N-[3-(2-methylpyrazol-3-yl)-4-(2-morpholin-4-ylethoxy)phenyl]benzamide]
serotonin-mediated amplification of platelet aggregation [6]: inhibits
inhibition of 5-HT-mediated amplification of platelet aggregation [7]: Near-maximal inhibition
serotonin-mediated vasoconstriction [8]: inhibits
AUC accumulation ratio [1, 13]: less than 2
Cmax accumulation ratio [1, 13]: less than 2
absorption ([1]; oral 5 to 80 mg TID for 7 days, healthy subjects): rapidly absorbed at all doses
exposure as measured by AUC versus dose ([1]; oral TID, 5 and 10 mg): dose proportional
exposure as measured by AUC versus dose ([1]; oral TID, 40, 60, and 80 mg, Day 1 and Day 7): greater than dose proportional
5-HT-mediated amplification of platelet aggregation [9]: inhibited
degree of TRAP-induced platelet aggregation inhibition between groups [10]: similar
absorption ([2]; single oral dose 1 to 320 mg): rapidly absorbed at all doses
half-life as the dose was escalated ([2]; single oral dose 1 to 320 mg): half-life increased
plasma exposure measures versus dose ([2]; single oral dose 1 to 320 mg): increased in a greater than dose proportional manner
affinity for 5-HT2B receptors [3]: no appreciable affinity
epistaxis, subjects affected ([11]; Compound 1 group, single IV dose): one subject
bleeding-related TEAEs, Bleeding Academic Research Consortium (BARC) Type ([11]; single IV doses): ≤ 1
discontinuation of treatment ([11]; single IV doses 1 to 40 mg): No subjects discontinued treatment
Cmax ([12]; human, plasma, 40 mg single IV dose, healthy adult subjects, read-out: mean observed Cmax): 1840 ng/mL
half-life ([12]; human, plasma, single IV doses 1 to 40 mg, healthy adult subjects, read-out: mean terminal elimination half-life): 60 to 120 min
dose dependence of mean terminal elimination half-life ([12]; single IV doses 1 to 40 mg): dose-dependent
affinity for human 5-HT2A [4]: high affinity
affinity for 5-HT2C receptors [5]: no appreciable affinity
